Laboratory results reported in the NIST ThermoML archive (doi:10.1016/j.jct.2014.05.021).

Assay: excess molar enthalpy (molar enthalpy of mixing); xn = mol fraction of the nth substance listed
Conditions: 101 kPa, Liquid, Calvet calorimetry

[Ca] [calcium] + [Ag]
Conditions | excess molar enthalpy [kcal/mol]
1131 K, x1 = 0.7564 | -3.38
1131 K, x1 = 0.8188 | -2.59
1131 K, x1 = 0.8703 | -1.83
1131 K, x1 = 0.8808 | -1.66
1131 K, x1 = 0.9156 | -1.19
1131 K, x1 = 0.9224 | -1.1
1131 K, x1 = 0.9626 | -0.537
1131 K, x1 = 0.9647 | -0.496
1254 K, x1 = 0.0642 | -1.32
1254 K, x1 = 0.0984 | -1.7
1254 K, x1 = 0.1103 | -1.83
1254 K, x1 = 0.1123 | -2.28
1254 K, x1 = 0.1203 | -2.04
1254 K, x1 = 0.1288 | -2.6
1254 K, x1 = 0.1327 | -2.32
1254 K, x1 = 0.1487 | -2.66
1254 K, x1 = 0.1699 | -3.08
1254 K, x1 = 0.1893 | -3.43
1254 K, x1 = 0.1897 | -3.31
1254 K, x1 = 0.2073 | -3.25
1254 K, x1 = 0.2145 | -3.87
1254 K, x1 = 0.2393 | -3.77
1254 K, x1 = 0.2405 | -4.25
1254 K, x1 = 0.249 | -4.69
1254 K, x1 = 0.2673 | -4.17
1254 K, x1 = 0.2711 | -4.66
1254 K, x1 = 0.2999 | -4.55
1254 K, x1 = 0.3115 | -5.08
1254 K, x1 = 0.3416 | -4.95
1254 K, x1 = 0.3685 | -5.53
1254 K, x1 = 0.3962 | -5.28
1254 K, x1 = 0.4438 | -5.82
1254 K, x1 = 0.4634 | -5.88
1254 K, x1 = 0.4708 | -5.44
1254 K, x1 = 0.5175 | -5.79
1254 K, x1 = 0.5477 | -5.3
1254 K, x1 = 0.5562 | -5.62
1254 K, x1 = 0.6306 | -4.79
1254 K, x1 = 0.6313 | -5
1254 K, x1 = 0.6768 | -4.7
1254 K, x1 = 0.7157 | -4.28
1254 K, x1 = 0.7353 | -3.76
1254 K, x1 = 0.8259 | -2.59
1254 K, x1 = 0.9396 | -0.962
